The record followed here is US8048892B2, “Azaquinolone based compounds exhibiting prolyl hydroxylase inhibitory activity, compositions, and uses thereof” (Amgen Inc., priority 2006, dated 2011).

SMILES strings stand for the structures. Counter-ions that a name gives are not always drawn.

By IC50 is commonly meant the concentration needed to halve the response being measured. Read a high IC50 as a need for much substance.

Chain of HIF PHD2 (Q9GZT9 whole entry): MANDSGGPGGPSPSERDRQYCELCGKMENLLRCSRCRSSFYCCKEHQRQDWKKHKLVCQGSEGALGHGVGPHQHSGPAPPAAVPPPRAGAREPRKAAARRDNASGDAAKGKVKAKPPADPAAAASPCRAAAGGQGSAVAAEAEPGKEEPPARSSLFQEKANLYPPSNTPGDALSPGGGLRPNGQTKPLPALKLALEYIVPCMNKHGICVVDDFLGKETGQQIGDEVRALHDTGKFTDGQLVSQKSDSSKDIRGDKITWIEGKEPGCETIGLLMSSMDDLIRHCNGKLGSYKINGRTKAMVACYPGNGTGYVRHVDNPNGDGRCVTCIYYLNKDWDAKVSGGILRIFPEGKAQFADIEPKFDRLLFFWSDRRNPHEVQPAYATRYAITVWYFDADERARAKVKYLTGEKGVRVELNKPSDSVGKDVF

The target in this test is HIF PHD2 (Homo sapiens, UniProt Q9GZT9). Description: PHD2 inhibition assay (TR-FRET, VCB-Eu detection of hydroxylated P564-HIF1α peptide). Conditions: 2 nM PHD2, 100 nM P564-HIF1α peptide, 0.25 μM 2-oxoglutarate. In kind it is biochemical. The protocol:
Inhibition of HIF PHD2 activity was quantified utilizing the TR-FRET technology. HIF PHD2 catalyzes a hydroxyl modification on the proline residue of the P564-HIF1α peptide substrate (Biotin-DLEMLAPYIPMDDDFQL (SEQ ID NO: 7)) resulting in recognition and binding of the europylated Von Hippel-Lindau protein (pVHL), elongin B and elongin C heterotrimeric (VCB-Eu) complex.
The PHD2 inhibition assay was executed by addition of freshly dissolved FeCl2 to 178.57 μM (100 μM final concentration) in PHD2 Reaction Buffer containing 30 mM MES, pH 6, 10 mM NaCl, 0.25% Brij-35, 0.01% BSA, and 1% DMSO. 28 μL of the iron solution and 2 μL of inhibitor compounds serially diluted in 100% DMSO (5% DMSO final) were added to black polypropylene 96-well microtiter plates. To that, 10 μL of 10 nM PHD2 (2 nM final) was added to all wells of the plate except for the 8 wells of column 12 (LO control), and allowed to incubate at room temperature on the shaker for one hour. Column 6 was the HI control containing PHD2 enzyme and 5% DMSO vehicle, but no inhibitor compound. To initiate the PHD2 enzymatic reaction, 10 μL of a solution containing 500 nM P564-HIF1α peptide (100 nM final), 10 mM ascorbic acid (2 mM final), and 1.25 μM 2-oxoglutarate (α-ketoglutarate; 0.25 μM final) in PHD2 Reaction Buffer was added to all wells of the plate and allowed to incubate on the shaker at room temperature for one hour.
The reaction was terminated by addition of 25 μL TR-FRET Buffer (50 mM TRIS-HCl, pH 9, 100 mM NaCl, 0.05% BSA, and 0.5% Tween-20) containing 150 mM succinate (product inhibitor; 50 mM final), 75 nM streptavidin-APC (25 nM final), and 7.5 nM VCB-Eu (2.5 nM final). The TR-FRET detection reagents were placed on a shaker for 1 hour to reach binding equilibrium before reading on the Discovery platform (PerkinElmer). Europium is excited at 315 nm and phosphoresces at 615 nm with a large Stoke's shift. APC, in turn, emits at 655 nm upon excitation at 615 nm. The TR-FRET signal is measured as the ratio of the APC 655 nm signal divided by the internal europium reference 615 nm emission signal.
The POC (percentage of control) was determined by comparing the signal from hydroxylated peptide substrate in the enzyme reaction containing inhibitor compound with that from PHD2 enzyme with DMSO vehicle alone (HI control), and no enzyme (LO control). POC was calculated using the formula: % control (POC)=(cpd−average LO)/(average HI−average LO)*100. Data (consisting of POC and inhibitor concentration in μM) was fitted to a 4-parameter equation (y=A+((B−A)/(1+((x/C)^D))), where A is the minimum y (POC) value, B is the maximum y (POC), C is the x (cpd concentration) at the point of inflection and D is the slope factor) using a Levenburg-Marquardt non-linear regression algorithm.
(TR-FRET usually uses a lanthanide donor and a delayed reading to cut background.)
Consider `CC#Cc1cnc2c(c1)c(O)c(C(=O)NCC(=O)O)c(=O)n2C` [Example 84, 2-(4-Hydroxy-1-methyl-2-oxo-6-(prop-1-ynyl)-1,2-dihydro-1,8-naphthyridine-3-carboxamido)acetic acid], for which the IC50 fell in the range of 100 to 500 nM. On to `CC(C)Oc1ccc(-c2cnc3c(c2)c(O)c(C(=O)NCC(=O)O)c(=O)n3C)cc1` [Example 37, N-((4-Hydroxy-1-methyl-6-(4-((1-methylethyl)oxy)phenyl)-2-oxo-1,2-dihydro-1,8-naphthyridin-3-yl)carbonyl)glycine], for which the IC50 was 100 to 500 nM. As for `Cn1c(=O)c(C(=O)NCC(=O)O)c(O)c2ncc(Br)cc21` [Example 1, N-((7-Bromo-4-hydroxy-1-methyl-2-oxo-1,2-dihydro-1,5-naphthyridin-3-yl)carbonyl)glycine], the figure is < 50 nM. The result for `Cn1c(=O)c(C(=O)NCC(=O)O)c(O)c2cc(C#CC3CC3)c(C(F)(F)F)nc21` [Example 97, 2-(6-(2-Cyclopropylethynyl)-4-hydroxy-1-methyl-2-oxo-7-(trifluoromethyl)-1,2-dihydro-1,8-naphthyridine-3-carboxamido)acetic acid] reads < 50 nM; that for `Cn1c(=O)c(C(=O)NCC(=O)O)c(O)c2ccnc(Cl)c21` [Example 126, 2-(8-Chloro-4-hydroxy-1-methyl-2-oxo-1,2-dihydro-1,7-naphthyridine-3-carboxamido)acetic acid], 50 to 100 nM; that for `Cn1c(=O)c(C(=O)NCC(=O)O)c(O)c2cc(-c3cccs3)ncc21` [Example 109, N-((4-Hydroxy-1-methyl-2-oxo-6-(2-thienyl)-1,2-dihydro-1,7-naphthyridin-3-yl)carbonyl)glycine], < 50 nM. The result for `Cn1c(=O)c(C(=O)NCC(=O)O)c(O)c2cc(C3CCCCO3)cnc21` (racemic) [Example 68, (R,S)-2-(4-Hydroxy-1-methyl-2-oxo-6-(tetrahydro-2 H-pyran-2-yl)-1,2-dihydro-1,8-naphthyridine-3-carboxamido)acetic acid] reads < 50 nM; that for `Cc1cc(C)nc(-c2cnc3c(c2)c(O)c(C(=O)NCC(=O)O)c(=O)n3C)n1` [Example 30, 2-(6-(4,6-Dimethylpyrimidin-2-yl)-4-hydroxy-1-methyl-2-oxo-1,2-dihydro-1,8-naphthyridine-3-carboxamido)acetic acid], 50 to 100 nM; that for `Cn1c(=O)c(C(=O)NCC(=O)O)c(O)c2cccnc21` [Example 76, 2-(4-Hydroxy-1-methyl-2-oxo-1,2-dihydro-1,8-naphthyridine-3-carboxamido)acetic acid], 50 to 100 nM. `COc1cncc(-c2cnc3c(c2)c(O)c(C(=O)NCC(=O)O)c(=O)n3C)c1` [Example 55, N-((4-Hydroxy-1-methyl-6-(5-(methyloxy)-3-pyridinyl)-2-oxo-1,2-dihydro-1,8-naphthyridin-3-yl)carbonyl)glycine] showed an IC50 of 50 to 100 nM. Consider `Cn1c(=O)c(C(=O)NCC(=O)O)c(O)c2cc(-c3ccccc3N3CCOCC3)cnc21` [Example 57, N-((4-Hydroxy-1-methyl-6-(2-(4-morpholinyl)phenyl)-2-oxo-1,2-dihydro-1,8-naphthyridin-3-yl)carbonyl)glycine], for which the IC50 is < 50 nM. The result for `Cn1c(=O)c(C(=O)NCC(=O)O)c(O)c2cc(-c3cccc(N4CCCCC4)c3)cnc21` [Example 59, N-((4-Hydroxy-1-methyl-2-oxo-6-(3-(1-piperidinyl)phenyl)-1,2-dihydro-1,8-naphthyridin-3-yl)carbonyl)glycine] reads 50 to 100 nM; that for `CN1CCOc2cc(-c3cnc4c(c3)c(O)c(C(=O)NCC(=O)O)c(=O)n4C)ccc21` [Example 56, N-((4-Hydroxy-1-methyl-6-(4-methyl-3,4-dihydro-2H-1,4-benzoxazin-7-yl)-2-oxo-1,2-dihydro-1,8-naphthyridin-3-yl)carbonyl)glycine], 50 to 100 nM. As for `Cc1ncccc1-c1cnc2c(c1)c(O)c(C(=O)NCC(=O)O)c(=O)n2C` [Example 45, 2-(4-Hydroxy-1-methyl-6-(2-methylpyridin-3-yl)-2-oxo-1,8-naphthyridine-3-carboxamido)acetic acid], the figure is < 50 nM; as for `CN1CCN(c2cc3c(O)c(C(=O)NCC(=O)O)c(=O)n(C)c3cn2)CC1` [Example 122, 2-(4-Hydroxy-1-methyl-6-(4-methylpiperazin-1-yl)-2-oxo-1,2-dihydro-1,7-naphthyridine-3-carboxamido)acetic acid, Trifluoroacetic acid salt], 100 to 500 nM. Regarding `Cn1c(=O)c(C(=O)NCC(=O)O)c(O)c2cc(C3CCNCC3)ncc21` [Example 115, 2-(4-Hydroxy-1-methyl-2-oxo-6-(piperidin-4-yl)-1,2-dihydro-1,7-naphthyridine-3-carboxamido)acetic acid, Trifluoroacetic acid salt], the IC50 lay in the range of 50 to 100 nM. Turning to `Cn1c(=O)c(C(=O)NCC(=O)O)c(O)c2cc(-c3ccncc3)cnc21` [Example 43, 2-(4-Hydroxy-1-methyl-2-oxo-6-(pyridin-4-yl)-1,2-dihydro-1,8-naphthyridine-3-carboxamido)acetic acid], the IC50 lay within 100 to 500 nM. The result for `Cn1c(=O)c(C(=O)NCC(=O)O)c(O)c2cc(C3CC3)c(C(F)(F)F)nc21` [Example 93, 2-(6-cyclopropyl-4-hydroxy-1-methyl-2-oxo-7-(trifluoromethyl)-1,2-dihydro-1,8-naphthyridine-3-carboxamido)acetic acid] reads 50 to 100 nM; that for `Cn1c(=O)c(C(=O)NCC(=O)O)c(O)c2cc(-c3ccc(F)nc3)cnc21` [Example 51, N-((6-(6-Fluoro-3-pyridinyl)-4-hydroxy-1-methyl-2-oxo-1,2-dihydro-1,8-naphthyridin-3-yl)carbonyl)glycine], < 50 nM. The compound `Cn1c(=O)c(C(=O)NCC(=O)O)c(O)c2cc(C3CCCC3)c(C(F)(F)F)nc21` [Example 98, 2-(6-Cyclopentyl-4-hydroxy-1-methyl-2-oxo-7-(trifluoromethyl)-1,2-dihydro-1,8-naphthyridine-3-carboxamido)acetic acid] had an IC50 of 100 to 500 nM. As for `Cn1c(=O)c(C(=O)NCC(=O)O)c(O)c2cc(-c3cncnc3)cnc21` [Example 61, N-((4-Hydroxy-1-methyl-2-oxo-6-(5-pyrimidinyl)-1,2-dihydro-1,8-naphthyridin-3-yl)carbonyl)glycine], the figure is < 50 nM; as for `Cn1c(=O)c(C(=O)NCC(=O)O)c(O)c2ncc(C3CCCC3)cc21` [Example 5, 2-(7-Cyclopentyl-4-hydroxy-1-methyl-2-oxo-1,2-dihydro-1,5-naphthyridine-3-carboxamido)acetic acid], < 50 nM. The result for `Cn1c(=O)c(C(=O)NCC(=O)O)c(O)c2ncc(-c3ccccc3)cc21` [Example 3, 2-(4-Hydroxy-1-methyl-2-oxo-7-phenyl-1,2-dihydro-1,5-naphthyridine-3-carboxamido)acetic acid] reads 50 to 100 nM; that for `Cn1c(=O)c(C(=O)NCC(=O)O)c(O)c2cc(-c3cccnc3)cnc21` [Example 44, 2-(4-Hydroxy-1-methyl-2-oxo-6-(pyridin-3-yl)-1,2-dihydro-1,8-naphthyridine-3-carboxamido)acetic acid], < 50 nM; that for `Cn1c(=O)c(C(=O)NCC(=O)O)c(O)c2ccnc(C(F)(F)F)c21` [Example 127, 2-(4-Hydroxy-1-methyl-2-oxo-8-(trifluoromethyl)-1,2-dihydro-1,7-naphthyridine-3-carboxamido)acetic acid], < 50 nM.

Turning to `Cn1c(=O)c(C(=O)NCC(=O)O)c(O)c2ccnc(-c3ccccc3)c21` [Example 128, 2-(4-Hydroxy-1-methyl-2-oxo-8-phenyl-1,2-dihydro-1,7-naphthyridine-3-carboxamido)acetic acid], the IC50 is < 50 nM. As to `COCC#Cc1cnc2c(O)c(C(=O)NCC(=O)O)c(=O)n(C)c2c1` [Example 10, 2-(4-Hydroxy-7-(3-methoxyprop-1-ynyl)-1-methyl-2-oxo-1,2-dihydro-1,5-naphthyridine-3-carboxamido)acetic acid], the IC50 is < 50 nM.
